Experimental data reported in paper PMC7527723, “Sex Steroids Induce Membrane Stress Responses and Virulence Properties in Pseudomonas aeruginosa” (mBio, 2020).

T1: Pseudomonas aeruginosa MucB protein (Pseudomonas aeruginosa, UniProt P38108 22-316)
T1 sequence: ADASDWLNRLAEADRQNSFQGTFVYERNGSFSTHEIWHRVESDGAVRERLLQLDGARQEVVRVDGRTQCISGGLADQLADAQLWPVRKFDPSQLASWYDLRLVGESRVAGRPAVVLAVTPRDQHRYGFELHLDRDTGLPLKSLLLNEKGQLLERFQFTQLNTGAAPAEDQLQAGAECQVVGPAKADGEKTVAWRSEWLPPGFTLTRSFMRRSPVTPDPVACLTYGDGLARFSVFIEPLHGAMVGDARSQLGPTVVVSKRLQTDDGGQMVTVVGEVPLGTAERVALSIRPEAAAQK


Columns and labels:
Vfr = molecular target: T2, Vfr (Pseudomonas aeruginosa, UniProt P55222); experiment: biochemical; type: binding
T2 construct: purified protein
T2 sequence (P55222 whole entry): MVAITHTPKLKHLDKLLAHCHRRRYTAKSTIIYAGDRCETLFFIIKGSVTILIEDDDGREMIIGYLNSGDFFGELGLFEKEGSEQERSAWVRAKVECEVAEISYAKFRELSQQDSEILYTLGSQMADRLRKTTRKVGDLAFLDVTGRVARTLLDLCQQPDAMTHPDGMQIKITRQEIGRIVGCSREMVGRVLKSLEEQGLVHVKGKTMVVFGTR

[1] = molecular target: T1, Pseudomonas aeruginosa MucB protein; experiment: SPR; purified MucB subjected to MucA binding (control); which partner was immobilised, buffer and temperature are not told in the text shown; conditions: both partners purified

| Molecule | Kd (Vfr) [µM] | Kd [1] [µM] |
| --- | --- | --- |
| C[C@]12CC[C@@H]3c4ccc(O)cc4CC[C@H]3[C@@H]1C[C@@H](O)[C@@H]2O [E3, estriol] | 750 to 782 | – |
| C[C@]12CC[C@H]3[C@@H](CCC4=CC(=O)CC[C@@]43C)[C@@H]1CC[C@@H]2O [T, testosterone] | 1700 to 1800 | – |
| MucA (natural protein, also called anti-sigma factor) YNQNDALPQMAQQGTTPQIALPQVKGPAVLAGYSEEQGAPQVITNSSSSDTRWHEQRLPIYLRQHVQQSAVSGTESALPYARAASLENR | – | 2.93 |
